Source: ChEMBL document CHEMBL1201862, “PubChem BioAssay data set” (2004)
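Briefly, cells in 96-well plates were exposed to five compound concentrations for 48 h, and endpoints were estimated by linear interpolation. GI50: concentration for 50% inhibition of growth.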 Active and inactive are the calls of the source. Cut-off read from the data, not from the text of the source: active = GI50 up to about 1.1 µM and inactive = higher.

Assays:
Experiment in all cases: inhibition of tumour cell growth, NCI panel, 48 h
786-0 = system: 786-0
A549 = system: A549
ACHN = system: ACHN
CAKI-1 = system: CAKI-1
CCRF-CEM = system: CCRF-CEM
COLO 205 = system: COLO 205
DLD-1 = system: DLD-1
DMS-114 = system: DMS-114
EKVX = system: EKVX
HCT-116 = system: HCT-116
HCT-15 = system: HCT-15
HL-60 = system: HL-60
HOP-18 = system: HOP-18
HOP-62 = system: HOP-62
HOP-92 = system: HOP-92
HT-29 = system: HT-29
IGROV-1 = system: IGROV-1
K562 = system: K562
KM-20L2 = system: KM-20L2
KM12 = system: KM12
LXFL 529 = system: LXFL 529
M14 = system: M14
M19-MEL = system: M19-MEL
MOLT-4 = system: MOLT-4
Malme-3M = system: Malme-3M
NCI-H226 = system: NCI-H226
NCI-H23 = system: NCI-H23
NCI-H460 = system: NCI-H460
NCI-H522 = system: NCI-H522
OVCAR-3 = system: OVCAR-3
OVCAR-4 = system: OVCAR-4
OVCAR-8 = system: OVCAR-8
RPMI-8226 = system: RPMI-8226
RXF 393 = system: RXF 393
SF-268 = system: SF-268
SF-295 = system: SF-295
SF-539 = system: SF-539
SK-MEL-28 = system: SK-MEL-28
SK-MEL-2 = system: SK-MEL-2
SK-MEL-5 = system: SK-MEL-5
SK-OV-3 = system: SK-OV-3
SN12C = system: SN12C
SNB-19 = system: SNB-19
SNB-75 = system: SNB-75
SR = system: SR
SW-620 = system: SW-620
TK-10 = system: TK-10
U-251 = system: U-251
UACC-257 = system: UACC-257
UACC-62 = system: UACC-62
UO-31 = system: UO-31
XF498 = system: XF498
A498 = system: A498
DMS-273 = system: DMS-273
HCC 2998 = system: HCC 2998
LOX IMVI = system: LOX IMVI
OVCAR-5 = system: OVCAR-5
SNB-78 = system: SNB-78

Measured: GI50

C/C(=C\c1ccccc1)C(=O)c1c(C)cc(C)cc1C
inactive: 786-0 > 100 µM | A549 > 100 µM | ACHN > 100 µM | CAKI-1 > 100 µM | CCRF-CEM > 100 µM | COLO 205 > 100 µM | DLD-1 > 100 µM | DMS-114 > 100 µM | EKVX > 100 µM | HCT-116 > 100 µM | HL-60 > 100 µM | HOP-18 > 100 µM | HOP-62 > 100 µM | HOP-92 > 100 µM | HT-29 > 100 µM | IGROV-1 > 100 µM | K562 > 100 µM | KM-20L2 > 100 µM | KM12 > 100 µM | LXFL 529 > 100 µM | M14 > 100 µM | M19-MEL > 100 µM | MOLT-4 > 100 µM | Malme-3M > 100 µM | NCI-H226 > 100 µM | NCI-H23 > 100 µM | NCI-H460 > 100 µM | NCI-H522 > 100 µM | OVCAR-3 > 100 µM | OVCAR-4 > 100 µM | OVCAR-8 > 100 µM | RPMI-8226 > 100 µM | RXF 393 > 100 µM | SF-268 > 100 µM | SF-295 > 100 µM | SF-539 > 100 µM | SK-MEL-28 > 100 µM | SK-MEL-2 > 100 µM | SK-MEL-5 > 100 µM | SK-OV-3 > 100 µM | SN12C > 100 µM | SNB-19 > 100 µM | SNB-75 > 100 µM | SR > 100 µM | SW-620 > 100 µM | TK-10 > 100 µM | U-251 > 100 µM | UACC-257 > 100 µM | UACC-62 > 100 µM | UO-31 > 100 µM | XF498 > 100 µM
> 100 µM: HCT-15

Nc1ccccc1[S+]([O-])c1ccccc1 (configuration not stated)
inactive: 786-0 > 100 µM | A498 > 100 µM | A549 > 100 µM | ACHN > 100 µM | CCRF-CEM > 100 µM | COLO 205 > 100 µM | DMS-114 > 100 µM | DMS-273 > 100 µM | EKVX > 100 µM | HCC 2998 > 100 µM | HCT-116 > 100 µM | HL-60 > 100 µM | HOP-18 > 100 µM | HOP-62 > 100 µM | HOP-92 39.2 µM | IGROV-1 > 100 µM | K562 > 100 µM | KM-20L2 > 100 µM | KM12 > 100 µM | LOX IMVI > 100 µM | LXFL 529 > 100 µM | M14 > 100 µM | M19-MEL > 100 µM | MOLT-4 > 100 µM | Malme-3M > 100 µM | NCI-H226 > 100 µM | NCI-H23 > 100 µM | NCI-H460 > 100 µM | NCI-H522 > 100 µM | OVCAR-3 > 100 µM | OVCAR-4 > 100 µM | OVCAR-5 > 100 µM | OVCAR-8 > 100 µM | RPMI-8226 > 100 µM | RXF 393 > 100 µM | SF-268 > 100 µM | SF-295 > 100 µM | SF-539 > 100 µM | SK-MEL-28 > 100 µM | SK-MEL-2 > 100 µM | SK-MEL-5 > 100 µM | SK-OV-3 > 100 µM | SN12C > 100 µM | SNB-19 > 100 µM | SNB-75 > 100 µM | SW-620 > 100 µM | TK-10 > 100 µM | U-251 > 100 µM | UACC-62 > 100 µM | UO-31 > 100 µM | XF498 > 100 µM
> 100 µM: HCT-15

Nc1nc(N)c2ncn(CC(CO)CC(c3ccccc3)P(=O)(O)O)c2n1 (configuration not stated)
> 100 µM: HCT-15
inactive: A498 > 100 µM | A549 > 100 µM | ACHN > 100 µM | CAKI-1 > 100 µM | CCRF-CEM > 100 µM | COLO 205 > 100 µM | DLD-1 > 100 µM | DMS-114 > 100 µM | DMS-273 > 100 µM | HCC 2998 > 100 µM | HCT-116 > 100 µM | HL-60 > 100 µM | HOP-18 > 100 µM | HOP-62 > 100 µM | HOP-92 > 100 µM | HT-29 > 100 µM | IGROV-1 > 100 µM | K562 > 100 µM | KM-20L2 > 100 µM | KM12 > 100 µM | LOX IMVI > 100 µM | M14 2.43 µM | M19-MEL > 100 µM | MOLT-4 > 100 µM | Malme-3M > 100 µM | NCI-H226 > 100 µM | NCI-H23 > 100 µM | NCI-H460 > 100 µM | NCI-H522 > 100 µM | OVCAR-3 > 100 µM | OVCAR-5 > 100 µM | OVCAR-8 > 100 µM | RPMI-8226 > 100 µM | RXF 393 > 100 µM | SF-268 > 100 µM | SF-295 > 100 µM | SF-539 > 100 µM | SK-MEL-28 > 100 µM | SK-MEL-2 > 100 µM | SK-MEL-5 > 100 µM | SK-OV-3 > 100 µM | SN12C > 100 µM | SNB-19 > 100 µM | SNB-75 > 100 µM | SNB-78 > 100 µM | SW-620 > 100 µM | TK-10 > 100 µM | U-251 > 100 µM | UACC-257 > 100 µM | UACC-62 > 100 µM | UO-31 > 100 µM | XF498 > 100 µM
